Experimental findings from patent US20150045553A1, “PHENYLTRIAZOLE DERIVATIVE” (TOSHO PHARMACEUTICAL CO., LTD, priority 2011, published 2015) are described below.

Where a name gives a salt, the structure may show the parent alone.

The target of this assay is T1, H3 receptor (Rattus norvegicus, UniProt Q9QYN8).
T1 construct: The frontal cortex dissected from rats was homogenized; from tissue; host or cells: rat frontal cortex membrane fraction
T1 sequence (Q9QYN8 whole entry): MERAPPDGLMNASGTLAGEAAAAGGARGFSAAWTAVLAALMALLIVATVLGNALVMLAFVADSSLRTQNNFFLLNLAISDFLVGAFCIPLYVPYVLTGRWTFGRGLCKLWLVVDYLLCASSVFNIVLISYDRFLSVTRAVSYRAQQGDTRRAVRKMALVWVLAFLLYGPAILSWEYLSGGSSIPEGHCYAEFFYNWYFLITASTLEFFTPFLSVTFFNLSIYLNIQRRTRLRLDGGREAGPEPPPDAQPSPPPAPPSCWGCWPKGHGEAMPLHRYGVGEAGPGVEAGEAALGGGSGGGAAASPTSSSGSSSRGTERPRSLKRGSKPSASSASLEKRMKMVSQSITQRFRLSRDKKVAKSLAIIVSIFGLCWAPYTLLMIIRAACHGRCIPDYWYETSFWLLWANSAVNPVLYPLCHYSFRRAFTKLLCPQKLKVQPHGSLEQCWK
Put plainly: Rat H3 receptor binding test (N-α-methyl[3H]histamine, frontal cortex membrane fraction). The conditions noted are these: N-α-methyl[3H]histamine 0.75 nM, room temperature, an hour. On the procedure:
(Test 1: Rat H3 Receptor Binding Test)
The frontal cortex dissected from rats was homogenized with a Teflon (registered trademark) homogenizer in a 50 mM Tris-HCl buffer solution (pH 7.4) containing a protease inhibitor (Complete EDTA-free; Roche Diagnostics) and 5 mM EDTA. The homogenate was centrifuged at 48,000×g for 15 minutes. The supernatant was removed and the pellet was suspended in a 50 mM Tris-HCl buffer solution (pH 7.4) containing 5 mM EDTA and centrifuged at 48,000×g for 15 minutes. The supernatant was removed and the pellet was suspended in a 50 mM Tris-HCl buffer solution (pH 7.4) containing 5 mM EDTA to give a membrane fraction. The membrane fraction (the protein content in the final reaction mixture: 75 μg), N-α-methyl[^3H]histamine (PerkinElmer; final concentration: 0.75 nM) and a test drug were mixed and subjected to reaction at room temperature for an hour. After the end of the reaction, the reaction mixture was suction filtered through a 96-well GF/C filter plate pretreated with 0.3% polyethyleneimine; the filters were then washed five times with a 50 mM Tris-HCl buffer solution (pH 7.4) containing 5 mM EDTA. After the washing, the filters were dried and a scintillator was added to measure the residual radioactivity on the filter with TopCount (PerkinElmer).
The residual radioactivity in the presence of 10 μM thioperamide was taken as indicative of nonspecific binding and the difference from the residual radioactivity in the absence of thioperamide was taken as indicative of specific binding. Each of the test drugs was dissolved and diluted in DMSO at varying concentrations to plot a dose-response curve from the corresponding residual radioactivities; the concentration of test drug that inhibited the specific binding by 50% (IC50) was determined from this curve.
The molecule `CCOC(=O)c1cn(-c2ccc(OC3CCN(C4CCC4)CC3)cc2)nn1` [Compound No. 1, ethyl 1-{4-[(1-cyclobutylpiperidin-4-yl)oxy]phenyl}-1H-1,2,3-triazole-4-carboxylate] had an IC50 of 5.3 nM.
For `COCc1cn(-c2ccc(OC3CCN(C4CCC4)CC3)cc2)nn1` [Compound No. 2, 1-cyclobutyl-4-{4-[4-(methoxymethyl)-1H-1,2,3-triazol-1-yl]phenoxy}piperidine] the value was 7.4 nM; for `CCOc1cn(-c2ccc(OC3CCN(C4CCC4)CC3)cc2)nn1` [Compound No. 3, 1-cyclobutyl-4-[4-(4-ethoxy-1H-1,2,3-triazol-1-yl)phenoxy]piperidine], 5.1 nM; for `c1cc(-n2cc(C3CC3)nn2)ccc1OC1CCN(C2CCC2)CC1` [Compound No. 4, 1-cyclobutyl-4-[4-(4-cyclopropyl-1H-1,2,3-triazol-1-yl)phenoxy]piperidine], 3.6 nM.
The value for `O=C(O)c1cn(-c2ccc(OC3CCN(C4CCC4)CC3)cc2)nn1` [Compound No. 17, 1-{4-[(1-cyclobutylpiperidin-4-yl)oxy]phenyl}-1H-1,2,3-triazole-4-carboxylic acid hydrochloride] was 132 nM; that for `O=C(c1cn(-c2ccc(OC3CCN(C4CCC4)CC3)cc2)nn1)N1CCC1` [Compound No. 18, azetidin-1-yl(1-{4-[(1-cyclobutylpiperidin-4-yl)oxy]phenyl}-1H-1,2,3-triazol-4-yl)methanone] was 14 nM; that for `NC(=O)c1cn(-c2ccc(OC3CCN(C4CCC4)CC3)cc2)nn1` [Compound No. 20, 1-{4-[(1-cyclobutylpiperidin-4-yl)oxy]phenyl}-1H-1,2,3-triazole-4-carboxamide] was 18 nM.
The value for `N#Cc1cn(-c2ccc(OC3CCN(C4CCC4)CC3)cc2)nn1` [Compound No. 21, 1-{4-[(1-cyclobutylpiperidin-4-yl)oxy]phenyl}-1H-1,2,3-triazole-4-carbonitrile hydrochloride] was 13 nM.
Consider `c1cn(-c2ccc(OC3CCN(C4CCC4)CC3)cc2)nn1` [Compound No. 23, 1-cyclobutyl-4-[4-(1H-1,2,3-triazol-1-yl)phenoxy]piperidine], for which the IC50 was 17 nM.
Regarding `CCOC(=O)c1cn(-c2ccc(OCCCN3CCC[C@H]3C)cc2)nn1` [Compound No. 24, ethyl 1-(4-{3-[(2R)-2-methylpyrrolidin-1-yl]propoxy}phenyl)-1H-1,2,3-triazole-4-carboxylate], the half-inhibitory concentration (IC50) is 7.4 nM.
`O=C(c1cn(-c2ccc(OC3CCN(C4CCC4)CC3)cc2)nn1)N1CCOCC1` [Compound No. 25, (1-{4-[(1-cyclobutylpiperidin-4-yl)oxy]phenyl}-1H-1,2,3-triazol-4-yl)(morpholin-4-yl)methanone]: the IC50 is 6.4 nM.
In turn, `CN(C)C(=O)c1cn(-c2ccc(OC3CCN(C4CCC4)CC3)cc2)nn1` [Compound No. 26, 1-{4-[(1-cyclobutylpiperidin-4-yl)oxy]phenyl}-N,N-dimethyl-1H-1,2,3-triazole-4-carboxamide] returned an IC50 of 5.5 nM. The IC50 values of the last two molecules are within 1.5-fold of each other.
For `CCOC(=O)c1cn(-c2ccc(OC3CCN(C(C)(C)C)CC3)cc2)nn1` [Compound No. 27, ethyl 1-{4-[(1-tert-butylpiperidin-4-yl)oxy]phenyl}-1H-1,2,3-triazole-4-carboxylate] the value was 70 nM.
The value for `CC(C)(C)N1CCC(Oc2ccc(-n3cc(C(=O)N4CCCC4)nn3)cc2)CC1` [Compound No. 28, (1-{4-[(1-tert-butylpiperidin-4-yl)oxy]phenyl}-1H-1,2,3-triazol-4-yl)(pyrrolidin-1-yl)methanone] was 33 nM.
The value for `CC(C)(C)N1CCC(Oc2ccc(-n3cc(C(=O)N4CCC4)nn3)cc2)CC1` [Compound No. 29, azetidin-1-yl(1-{4-[(1-tert-butylpiperidin-4-yl)oxy]phenyl}-1H-1,2,3-triazol-4-yl)methanone] was 48 nM.
